The source of these data is PubChem BioAssay AID1996.

The structures appear in SMILES notation. Values after ≈ are worked out from the molar mass of the structure shown.

For this data set the following is noted: buffer; pH 7.4; 200.0 µM.
What is called solubility (kinetic) is the concentration staying in solution when a stock, usually in DMSO, is diluted into the medium. `CCN(C(=O)CSc1nc2ccccc2c(=O)n1-c1cccc(C)c1)C1CCS(=O)(=O)C1` (centres undefined) had a solubility (kinetic) of 2.8 µg/mL (≈ 5.94 µM). `CC(NC(=O)c1ccc(Br)o1)C1CC2CCC1C2` (centres undefined) displayed a solubility (kinetic) of 29.3 µg/mL (≈ 93.8 µM). Regarding `COC(=O)Cn1ccc(-c2ccc(Cl)cc2)c(C#N)c1=O`, the kinetic solubility was more than 45.4 µg/mL. Consider `O=C(Nc1cc2c3c(c1)CC(=O)N3CCC2)c1ccc(F)cc1`, for which the kinetic solubility is more than 46.5 µg/mL. As for `COc1ccc(NS(=O)(=O)c2ccc3[nH]c(=O)[nH]c3c2)cc1`, the kinetic solubility came to 12.7 µg/mL (≈ 39.8 µM). For `CC(=O)c1ccc(NC(=S)N2CCC(Cc3ccccc3)CC2)cc1`, the solubility (kinetic) was found to be 2.8 µg/mL (≈ 7.94 µM). For `CC1SC(C)C(=O)N(CC(=O)Nc2ccc([N+](=O)[O-])cc2)C1=O` (centres undefined) the value was 45.7 µg/mL (≈ 135 µM); for `COc1ccc(S(=O)(=O)N2CCN(CCc3ccccc3)CC2)cc1`, 1.5 µg/mL (≈ 4.16 µM). Compound `O=C(NCCc1ccccc1)c1ccccc1[N+](=O)[O-]` gave a solubility (kinetic) of 33.6 µg/mL (≈ 124 µM). For `CN(C)C(CNC(=O)c1ccc2nccnc2c1)c1ccco1` (centres undefined) the value was 46.5 µg/mL (≈ 150 µM); for `CC(C)CNC(=O)c1ccc2c(c1)C(=O)N(Cc1ccco1)C2=O`, 25.9 µg/mL (≈ 79.4 µM); for `Cc1cc(NC(=O)C(=O)c2c(C)[nH]c3ccccc23)no1`, 28.2 µg/mL (≈ 99.5 µM). For `COc1ccc(S(=O)(=O)Nc2noc3ccccc23)cc1` the value was 42.1 µg/mL (≈ 138 µM); for `Cn1ccnc1C(=O)c1ccc(S(=O)(=O)N2CCCC2)cc1`, more than 47.9 µg/mL; for `O=C(COC(=O)c1c(F)cccc1Cl)NC1CCCCC1`, more than 47.1 µg/mL. For `O=C1C2C3CCC(O3)C2C(=O)N1c1cccc(F)c1` (centres undefined) the value was 39.2 µg/mL (≈ 150 µM); for `COc1cc([N+](=O)[O-])ccc1NC(=O)Nc1cnccn1`, 0.8 µg/mL (≈ 2.77 µM); for `NC(=S)Nc1ccc(C(F)(F)F)cc1Cl`, 33.5 µg/mL (≈ 132 µM).

For the compound `CC1CCCN(S(=O)(=O)c2cccc(C(=O)OCC(=O)N(C)Cc3c(F)cccc3Cl)c2)C1` (centres undefined), the kinetic solubility worked out at 8.8 µg/mL (≈ 17.7 µM).

For `O=C(NCCCNC(=O)c1cc(Cl)ccc1Cl)c1cnccn1`, the kinetic solubility came to 45.4 µg/mL (≈ 129 µM).

With `CN1CCCN(C(=O)COc2ccc(F)cc2Cl)CC1`, the solubility (kinetic) was more than 45.1 µg/mL. For `O=C(Nc1ccccc1-c1ccccc1)c1ccccc1[N+](=O)[O-]` the value was 16.8 µg/mL (≈ 52.8 µM); for `N#Cc1cc([N+](=O)[O-])ccc1NC(=O)COC(=O)CN1C(=O)C2CCCCC2C1=O` (centres undefined), more than 62.2 µg/mL. On to `CCCC(C(=O)O)n1c(O)c(C=C2N=c3ccccc3=N2)sc1=S` (centres undefined), for which the kinetic solubility was more than 54.2 µg/mL. For `O=C1Cc2ccccc2C(=O)N1Cc1cccc(Cl)c1` the value was 12.2 µg/mL (≈ 42.7 µM); for `COc1ccc(NC(=O)/C=C/c2cccc(Br)c2)cn1`, 3.8 µg/mL (≈ 11.4 µM). Compound `COC(=O)c1ccc(/C=C/C(=O)OCC(=O)Nc2cc(C)on2)cc1` had a kinetic solubility of 3 µg/mL (≈ 8.71 µM).

As to `CCCn1c(N)c(C(=O)COc2ccc(Br)cc2F)c(=O)n(C)c1=O`, the kinetic solubility was found to be 3.9 µg/mL (≈ 9.42 µM).

Consider `Cc1cccc(NC(=O)CSc2nc3ccccc3c(=O)n2CC2CCCO2)c1` (centres undefined), for which the solubility (kinetic) is 4.2 µg/mL (≈ 10.3 µM). With `O=[N+]([O-])c1ccc(NCCCO)c(S(=O)(=O)N2CCOCC2)c1`, the solubility (kinetic) is 48.8 µg/mL (≈ 141 µM). The same measure for `O=C(NN1CCOCC1)c1ccccc1F`: more than 33.6 µg/mL; for `O=C(O)/C=C/C(=O)Nc1ccc(Cc2ccc(NC(=O)/C=C/C(=O)O)cc2)cc1`: 58 µg/mL (≈ 147 µM). For `Cn1c(=NC(=O)C(C)(C)C)sc2cccc(F)c21` the value was 1 µg/mL (≈ 3.75 µM); for `O=[N+]([O-])c1ccc(S(=O)(=O)Nc2ccc3c(c2)OCCO3)cc1`, 45.2 µg/mL (≈ 134 µM). The same measure for `CC(CN1CCC(O)CC1)c1ccccc1` (centres undefined): 26.6 µg/mL (≈ 121 µM); for `CC(=O)Nc1ccc(NC(=O)C(C)OC(=O)CC23CC4CC(CC(Br)(C4)C2)C3)cc1` (centres undefined): more than 71.6 µg/mL; for `CC1(N(O)/C=C2\C=CC=CC2=O)CCCCC1=O` (centres undefined): more than 37.1 µg/mL. Turning to `O=C(NCCOc1ccccc1)C1=CC=CN2CCS(=O)(=O)N=C12`, the solubility (kinetic) is more than 52.1 µg/mL.

The compound `O=C(OCC(=O)N1CCCC1)c1ccc(Cl)c([N+](=O)[O-])c1` yielded a kinetic solubility of 31.8 µg/mL (≈ 102 µM).
